Source: US7419954B2, “Staphylococcus peptides for bacterial interference” (priority 1998, dated 2008)
Where a SMILES comes first, the peptide text is derived from it. Bridges are numbered along the chain shown (N, C = ends).

Key:
[1] = Determination of AIP-II half-life: incubation in PBS or rabbit serum, then dose-response activation of β-lactamase induction; assay type: cell-based, S. aureus; details: rabbit, rabbit serum; from EC50 shift PBS vs serum; given as in vivo
Protocol: (§1) Determination of AIP-II half-life. To approximate the active lifetime of AIP, a synthetic version of AIP-IL (Lyon et al. (2002) Biochemistry 41, 10095-104) was incubated in PBS or rabbit serum at 37° C. for 4 hours. The sample was diluted and a dose-response assay for activation of β-lactamase induction of strain RN7206 carrying the agrCA-II agrp3-blaZ reporter fusion was performed as previously described (Lyon et al. (2002) supra; Wright III et al. (2004) Proc. Natl. Acad. Sci., USA).

[2] = tested on: strain RN7206 carrying the agrCA-II agrp3-blaZ reporter fusion; assay: as above; assay type: cell-based, S. aureus; details: normal rabbit serum
Protocol: as §1

[3] = tested on: agr-I bacteria (RN6734) carrying agrp3-lux or blaZp-lux; assay: Murine subcutaneous abscess model with in vivo bioluminescence imaging; parameters: species or system SKH-1 mice; details: mice, single dose 10 μg co-injected with agr-I bacteria
Protocol: Murine subcutaneous abscess model. Groups (n=3 per variable examined) of hairless, euthymic SKH-1 (ISL) mice (Charles River) were used in the murine subcutaneous abscess model (Bunce et al. (1992) Infect. Immun. 60, 2636-40). In this model, staphylococci are injected subcutaneously with cytodex beads, and an abscess develops at the site of injection 2-3 days later, then sloughs and drains. The organisms grow rapidly initially, after which the population levels out and remains constant thereafter. Polymorphonuclear leuykocytes (PMNs) are attracted to the developing lesion by bacterial products and by pro-inflammatory cytokines, reaching maximum numbers by about 6 hours.
Bacteria were thawed, diluted to appropriate cell density, mixed with sterile cytodex beads (Sigma) and injected subcutaneously in a volume of 0.1 ml in the flank region. […] Mice were fed a standard diet ad libitum and monitored daily for signs of distress. Colony forming units (CFU) per abscess were determined by plating serial dilutions of excised lesions homogenized in PBS plus 0.5% Triton X-100.
Measurement of bioluminescence in vivo. […] For the graphs, the signal collected on a portion of the CCD array corresponding to the area of injected bacteria was determined in photons/sec/cm^2/sr, referred to as relative light units (RLU), and plotted vs. time after initiation of infection.

[4] = molecular target: AgrC receptor of group I S. aureus (Staphylococcus aureus); assay: cell-based or functional assay
[5] = molecular target: AgrC receptor of group II S. aureus (Staphylococcus aureus); assay: cell-based or functional assay
[6] = molecular target: AgrC receptor of group III S. aureus (Staphylococcus aureus); assay: cell-based or functional assay
[7] = tested on: agr response in groups I, II and III S. aureus strains; assay: agr P3-blaZ β-lactamase reporter assay, activation/inhibition in the three S. aureus strains; assay type: cell-based
Protocol: (§2) The synthetic AgrD peptides shown in Table 1 include the following: Agr D1 Thiolactone. […] (SEQ ID NO: 9): Agr D2 Thiolactone, […] (SEQ lID NO: 1): Agr D2 Linear Thioester, […] (SEQ ID NO: 1): Agr D2 Linear Free Acid […] (SEQ ID NO: 1); Agr D2 Lactone, […] (SEQ ID NO: 1); and Agr D2 Lactam, GVNAXSSLF (SEQ ID NO: 1).
(§3) Biological activity of synthetic AgrD peptides. Biological assays were performed using groups I (RN6390B), II (SA502A) and III (RN8463) S. aureus strains (Ji et al. (1997) supra), each containing an agr P3-blaZ fusion plasmid (Novick et al. (1995) supra). Cells were grown in CYGP medium at 37° C. to either early exponential phase for agr activation studies, or midexponential phase for agr inhibition studies. To the cultured cells were then added one of the following: buffer solution (negative control), the appropriate cell supernatant containing the natural AgrD peptide as prepared as in (Ji, G., et al., 1995) (positive control) or the synthetic peptide solution in 20 mM tris.HCl buffer at pH 6.0.

[8] = molecular target: agr response in group II (SA502A) S. aureus; assay: agr P3-blaZ β-lactamase reporter assay, activation of the agr response; assay type: cell-based; details: early exponential phase, 55 minutes
Protocol: as §2, §3

[9] = molecular target: agr response in group III (RN8463) S. aureus; assay: as above; assay type: cell-based; details: early exponential phase, 55 minutes
Protocol: as §2, §3

[10] = molecular target: agr response in group I (RN6390B) S. aureus; assay: as above; assay type: cell-based; details: early exponential phase, 55 minutes
Protocol: as §2, §3

[11] = molecular target: agr response in group II (SA502A) S. aureus; assay: agr P3-blaZ β-lactamase reporter assay, inhibition of the agr response; assay type: cell-based; details: for inhibition of self (own group): own S. aureus group (group II)
Protocol: as §2, §3

[12] = molecular target: agr response in group III (RN8463) S. aureus; assay: as above; assay type: cell-based
Protocol: as §2, §3

[13] = molecular target: agr response in group I (RN6390B) S. aureus; assay: as above; assay type: cell-based; details: for IC50 Inhibition, S. aureus Group I / IC50: group I (RN6390B), midexponential phase, 80 minutes
Protocol: as §2, §3

[14] = group II (SA502A), midexponential phase, 80 minutes
[15] = group III (RN8463), midexponential phase, 80 minutes

| Molecule | IC50 Inhibition (nM), agr P3-blaZ beta-lactamase reporter [4] [nM] | ED50 Activation, S. aureus Group II [8] | ED50 Activation, S. aureus Group III [9] | ED50 Activation, S. aureus Group I [10] | IC50 Inhibition, S. aureus Group II [11, 14] | IC50 Inhibition, S. aureus Group I [13] | also measured |
| --- | --- | --- | --- | --- | --- | --- | --- |
| CC(C)C[C@@H]1NC(=O)[C@H](CO)NC(=O)[C@H](CO)NC(=O)[C@@H](NC(=O)[C@H](C)NC(=O)[C@H](CC(N)=O)NC(=O)[C@@H](NC(=O)CN)C(C)C)CSC(=O)[C@H](Cc2ccccc2)NC1=O [Agr D2 Thiololactone, GVNACSSLF (SEQ lID NO: 1)] (H-GVNACSSLF; thioester 5-C) | – | – | – | – | – | – | half-life [1]: < 4 h; in vitro lifetime [2]: ~4 h; effective biological lifetime of the peptide in vivo [3]: about 3 hours |
| Agr D1 Thiolactone (peptide) | – | – | – | – | – | – | ED50 Activation (nM), agr P3-blaZ beta-lactamase reporter [4]: 10.2 nM; IC50 Inhibition (nM), agr P3-blaZ beta-lactamase reporter [5]: 2.9 nM; IC50 Inhibition (nM), agr P3-blaZ beta-lactamase reporter [6]: 3.2 nM |
| Agr D2 Lactam (peptide) | 0.21 | – | – | – | – | – | – |
| Agr D2 Lactone (peptide) | 7.9 | – | – | – | – | – | – |
| Agr D2 Thiolactone (peptide) | 3.4 | – | – | – | – | – | ED50 Activation (nM), agr P3-blaZ beta-lactamase reporter [5]: 3.6 nM; IC50 Inhibition (nM), agr P3-blaZ beta-lactamase reporter [6]: 3.1 nM |
| GVNAASSLF [Agr D2 Linear Thioester, GVNAASSLF (SEQ ID NO: 1)] | – | No Activation | No Activation | No Activation | No Inhibition | No Inhibition | activation/inhibition of the agr response ([7]; added to cultured cells at μM concentrations): unable to either activate or inhibit; IC50 Inhibition, S. aureus Group III [12, 15]: No Inhibition |
| GVNASSSLF (SEQ ID NO: 1) [Agr D2 Lactone] | – | No Activation | No Activation | No Activation | No Inhibition | – | activation of the agr response in any of the three S. aureus strains [7]: unable to activate; inhibition of self (own group) [11]: do not inhibit self; inhibition of the agr response in group III S. aureus strains [12]: able to inhibit; inhibition of the agr response in group I S. aureus strains [13]: able to inhibit; IC50 [13]: 7.9 nM |
| GVNASSSLF [Agr D2 Linear Free Acid, GVNASSSLF (SEQ ID NO: 1)] | – | No Activation | No Activation | No Activation | No Inhibition | No Inhibition | IC50 Inhibition, S. aureus Group III [12, 15]: No Inhibition |
| GVNAXSSLF (SEQ ID NO: 1) [Agr D2 Lactam] | – | No Activation | No Activation | No Activation | No Inhibition | – | activation of the agr response in any of the three S. aureus strains [7]: unable to activate; inhibition of self (own group) [11]: do not inhibit self; inhibition of the agr response in group III S. aureus strains [12]: able to inhibit; inhibition of the agr response in group I S. aureus strains [13]: able to inhibit; IC50 [13]: 0.21 nM |
| YSTCDFIM [Agr D1 Thiolactone, YSTCDFIM (SEQ ID NO: 9)] | – | No Activation | No Activation | – | – | No Inhibition | EC50 ([10]; read-out: ED50 Activation, S. aureus Group I): 10.2 nM; IC50 [11, 14]: 2.9 nM; IC50 [12, 15]: 3.2 nM |
